Several values for one entry are separate records, joined by “and”; a condition that tells them apart may be missing. Equal values may be shown once. Read-outs that look alike come from different tables or passages of the source.
Columns and labels:
SARS-CoV-2 = experiment: microbe, parasite or virus in culture; assay type: cell-based
SARS-CoV-2 3CLPro = SARS-CoV-2 3CLPro (Severe acute respiratory syndrome coronavirus 2, UniProt P0DTD1); experiment: biochemical

CS(=O)(=O)c1ccc(N2CCNCC2)cc1 [SX013]
Inhibition (%) (SARS-CoV-2; 10 uM, Vero E6, replicates): 0% (2×) and 3.199%
viral copy numbers normalized to the control (untreated infected cells) (SARS-CoV-2; 10 uM, Vero E6, replicates): 1.473 and 0.968 and 1.581
Inhibition (%) (SARS-CoV-2; 100 uM, Vero E6, replicates): 10.36% and 9.981% and 0%
viral copy numbers normalized to the control (untreated infected cells) (SARS-CoV-2; 100 uM, Vero E6, replicates): 0.8964 and 0.9002 and 2.418
Inhibition (%) (SARS-CoV-2; 250 uM, Vero E6, replicates): 47.65% and 50.9%
viral copy numbers normalized to the control (untreated infected cells) (SARS-CoV-2; 250 uM, Vero E6, replicates): 0.5487 and 0.5235 and 0.491
Inhibition (%) (SARS-CoV-2; 500 uM, Vero E6, replicates): 62.09% and 74.66%
viral copy numbers normalized to the control (untreated infected cells) (SARS-CoV-2; 500 uM, Vero E6, replicates): 0.2563 and 0.3791 and 0.2534
Inhibition (%) (SARS-CoV-2; 750 uM, Vero E6, replicates): 96.1% and 86.32%
viral copy numbers normalized to the control (untreated infected cells) (SARS-CoV-2; 750 uM, Vero E6, replicates): 0.06859 and 0.03899 and 0.1368
Inhibition (%) (SARS-CoV-2; 1000 uM, Vero E6, replicates): 99.81%
viral copy numbers normalized to the control (untreated infected cells) (SARS-CoV-2; 1000 uM, Vero E6, replicates): 0.003839 and 0.001919 and 0
Inhibition (%) (SARS-CoV-2; 1500 uM, Vero E6, replicates): 99.97%
viral copy numbers normalized to the control (untreated infected cells) (SARS-CoV-2; 1500 uM, Vero E6, replicates): 0 (2×) and 0.000289
inhibition at 250 µM (SARS-CoV-2; Severe acute respiratory syndrome coronavirus 2, Vero C1008, 250 uM, Vero E6, replicates): 45.1%
inhibition at 500 µM (SARS-CoV-2; Severe acute respiratory syndrome coronavirus 2, Vero C1008, 500 uM, Vero E6, replicates): 74.4%
inhibition at 750 µM (SARS-CoV-2; Severe acute respiratory syndrome coronavirus 2, Vero C1008, 750 uM, Vero E6, replicates): 93.1%
inhibition at 1000 µM (SARS-CoV-2; Severe acute respiratory syndrome coronavirus 2, Vero C1008, 1000 uM, Vero E6, replicates): 99.6%
inhibition at 1500 µM (SARS-CoV-2; Severe acute respiratory syndrome coronavirus 2, Vero C1008, 1500 uM, Vero E6, replicates): 100%
EC50 (SARS-CoV-2; Severe acute respiratory syndrome coronavirus 2, Vero C1008, 48 h, read-out: EC50, blocking SARS-CoV-2 replication, Vero E6 cells, 48 h post infection): 304 µM
EC50 (SARS-CoV-2; read-out: EC50, blocking SARS-CoV-2 replication, Vero E6 cells, 48 h post infection): 304 µM
IC50 (SARS-CoV-2 3CLPro): 31 µM

From paper PMC8159961, “Exploring protein hotspots by optimized fragment pharmacophores” (Nature Communications, 2021)
